Experimental data from patent publication US9212146B2, “Substituted pyridazinones for the treatment of tumors” (SHANGHAI INSTITUTE OF MATERIA MEDICA, CHINESE ACADEMY OF …, priority 2008, dated 2015).

Experiments:
[1] = test system: human hepatoma cell line Bel-7402; experiment: SRB proliferation assay, Bel-7402; format: cell-based; conditions: Homo sapiens, Bel-7402, 72 h, BEL-7402 cultivated in vitro, given as bounds, read-out: The Inhibition Activities for Human Liver Cancer Cells BEL-7402 (IC50)
Experimental: (§1) Protocol: the antineoplasmic activities in vitro of the compounds were assayed by a Sulforhodamine B (SRB) protocol. Tumor cells were cultivated at 37 under 5% CO2 in a RPMI 1640 medium or a DMEM medium (Gibco) containing 10% fetal bovine serum. Tumor cells were inoculated on a 96-well plate with a concentration of 0.4-1.0×10^4 cells per well according to the cell types. 24 hours later, the target compounds diluted 10 times were added, each compound having at least 5 concentrations. After treated by the compounds for 72 hours, the culture media were discarded, and the cells were fixed by 10% cold trichloroacetic acid, and then stained by Sulforhodamine B (SRB) solution. The uncombined SRB was washed off, and the SRB combined with protein was dissolved with Tris. OD values were recorded at 515 nm on an ELISA Reader, and the cell growth inhibition rate was calculated according to following equation: Inhibition rate=(ODcontrol−ODexperimental)/ODcontrol×100%
IC50 (50% inhibitory concentration) was calculated by using Logit method based on the inhibition rates at various concentration, and the results are shown in tables 1 and 2.
The following cell lines were used: human hepatocarcinoma cell line […]; ovarian cancer cell line SK-OV-3; human breast cancer cell line MDA-MB-231; human renal carcinoma cell line A498; colon adenocarcinoma cell line HT-29; non-small cell lung cancer cell line NCI-H460; lung adenocarcinoma cell line A549; human colon cancer cell line SW-620; human hepatoma cell line Bel-7402; human breast carcinoma cell line SK-BR-3; and human umbilical vein endothelial cells (HUVEC).

[2] = test system: human liver cancer cells Bel-7402 transplanted tumor; format: in vivo; conditions: for Quantity of Animals Whose Tumors Vanished / Inhibition Rate (%) / Tumor Volume (mm^3): 100 mg/kg, PO, QDx11; for Quantity of Animals Whose Tumors Vanished: 5 animals per group; for Inhibition Rate (%) / Tumor Volume (mm^3): Bel-7402 on nude mice; for tumors vanished (animals/group): at the 11th day; for tumors vanished (animals/group) / toxicity / survivability of mice: intragastrically once a day for 11 days; for toxicity / survivability of mice: nude mice; for recrudescence of tumors: at the end of the experiment (17th day)
Text: Name and lot number: YHHU-744, a white powder, lot No.: No. c001471-106; YHHU-755, a white powder, lot No.: No. c001471-102; YHHU-756, a white powder, lot No.: No. c00147-106; YHHU-759, a white powder, lot No.: No. c001471-102; YHHU-776, a white powder, lot No.: No. c001471-107. Sorafenib was used as a positive control.
Formulation: YHHU-744, YHHU-755, YHHU-756, YHHU-759, YHHU-776 and the positive control were each diluted with 0.1% Tween-80 and distilled water to a desired concentration.
BALB/cA nude mice, 6-7 weeks old, ♀, were purchased from Shanghai SLAC Laboratory Animal Co. LTD. Certificate No.: SCXK (Shanghai) 2007-0005. Habitat: SPF level.
Human liver cancer cells Bel-7402 were inoculated on nude mice subcutaneously. After the tumor grew up to 300-450 mm^3, animals were grouped randomly (d0). The tumor volume was measured 2-3 times each week and the weights of mice were recorded. The tumor volume was calculated according to as the following equation. V=½×a×b^2 wherein, a and b are length and width, respectively. […]

[3] = test system: QGY-7703 liver cancer cells; experiment: SRB assay Example 17, QGY-7703; format: cell-based; conditions: Homo sapiens, 72 h
Experimental: as §1, with “diluted 3” for “diluted 10”, “least 9” for “least 5”
(§2) IC50 (50% inhibitory concentration) was calculated by using Logit method based on the inhibition rates at various concentration, and the results are shown in table 4.
(§3) Proliferation of turner cells was assayed by SRB protocol, drug action 72 h.

[4] = test system: H460 lung cancer cells; experiment: SRB assay Example 17, H460; format: cell-based; conditions: Homo sapiens, NCI-H460, 72 h
Experimental: as §1, with “diluted 3” for “diluted 10”, “least 9” for “least 5”
as §2, §3

[5] = test system: QSG-7701 liver cancer cells; experiment: SRB assay Example 17, QSG-7701; format: cell-based; conditions: Homo sapiens, QSG7701, 72 h
Experimental: as §1, with “diluted 3” for “diluted 10”, “least 9” for “least 5”
as §2, §3

[6] = test system: MCF-7 breast carcinoma cells; experiment: SRB assay Example 17, MCF-7; format: cell-based; conditions: Homo sapiens, MCF7, 72 h
Experimental: as §1, with “diluted 3” for “diluted 10”, “least 9” for “least 5”
as §2, §3

[7] = test system: HepG2 liver cancer cells; experiment: SRB assay Example 17, HepG2; format: cell-based; conditions: Homo sapiens, 72 h
Experimental: as §1, with “diluted 3” for “diluted 10”, “least 9” for “least 5”
as §2, §3

[8] = test system: CNE nasopharyngeal carcinoma cells; experiment: SRB assay Example 17, CNE; format: cell-based; conditions: Homo sapiens, 72 h
Experimental: as §1, with “diluted 3” for “diluted 10”, “least 9” for “least 5”
as §2, §3

[9] = test system: A2780 ovarian cancer cells; experiment: SRB assay Example 17, A2780; format: cell-based; conditions: Homo sapiens, 72 h
Experimental: as §1, with “diluted 3” for “diluted 10”, “least 9” for “least 5”
as §2, §3

[10] = test system: Bel-7402 liver cancer cells; experiment: SRB assay Example 17, Bel-7402; format: cell-based; conditions: Homo sapiens, drug action 72 h
Experimental: as §1, with “diluted 3” for “diluted 10”, “least 9” for “least 5”
as §2, §3

[11] = test system: HeLa cervical carcinoma cells; experiment: SRB assay Example 17, HeLa; format: cell-based; conditions: Homo sapiens, 72 h
Experimental: as §1, with “diluted 3” for “diluted 10”, “least 9” for “least 5”
as §2, §3

[12] = test system: HUH-7 liver cancer cells; experiment: SRB assay Example 17, HUH-7; format: cell-based; conditions: Homo sapiens, 72 h
Experimental: as §1, with “diluted 3” for “diluted 10”, “least 9” for “least 5”
as §2, §3

[13] = test system: QGY-7701 liver cancer cells; experiment: SRB assay Example 17, QGY-7701; format: cell-based; conditions: Homo sapiens, QGY7701, 72 h
Experimental: as §1, with “diluted 3” for “diluted 10”, “least 9” for “least 5”
as §2, §3

[14] = test system: Chang liver liver cell; experiment: SRB assay Example 17, Chang liver; format: cell-based; conditions: Homo sapiens, 72 h
Experimental: as §1, with “diluted 3” for “diluted 10”, “least 9” for “least 5”
as §2, §3

[15] = test system: HL-7702 liver cell; experiment: SRB assay Example 17, HL-7702; format: cell-based; conditions: Homo sapiens, L02, 72 h
Experimental: as §1, with “diluted 3” for “diluted 10”, “least 9” for “least 5”
as §2, §3

[16] = test system: Bel-7404 liver cancer cells; experiment: SRB assay Example 17, Bel-7404; format: cell-based; conditions: Homo sapiens, 72 h
Experimental: as §1, with “diluted 3” for “diluted 10”, “least 9” for “least 5”
as §2, §3

[17] = test system: SMMC-7721 liver cancer cells; experiment: SRB assay Example 17, SMMC-7721; format: cell-based; conditions: Homo sapiens, 72 h
Experimental: as §1, with “diluted 3” for “diluted 10”, “least 9” for “least 5”
as §2, §3

[18] = test system: A549 lung cancer cells; experiment: SRB assay Example 17, A549; format: cell-based; conditions: Homo sapiens, 72 h
Experimental: as §1, with “diluted 3” for “diluted 10”, “least 9” for “least 5”
as §2, §3

[19] = test system: HCCC-9810 liver cancer cells; experiment: SRB assay Example 17, HCCC-9810; format: cell-based; conditions: Homo sapiens, HCCC9810, 72 h
Experimental: as §1, with “diluted 3” for “diluted 10”, “least 9” for “least 5”
as §2, §3

[20] = test system: human liver cancer cells SMMC-7721 transplanted tumor; experiment: SMMC-7721 transplanted tumor on nude mice; format: in vivo; conditions: intragastrically once a day for 10 days
Experimental: Experimental procedure: BALB/cA nude mice, 6-7 weeks old, ♀, were purchased from Shanghai SLAC Laboratory Animal Co. LTD. Certificate No.: SCXK (Shanghai) 2007-0005. Habitat: SPF level. The compounds were diluted with 0.5% CMC containing 0.1% Tween-80 to a desired concentration. Human liver cancer cells SMMC-7721 were inoculated on nude mice subcutaneously. After the tumor grew up to 100-200 mm^3, animals were grouped randomly (d0). Mice were consecutively administered with compounds intragastrically once a day for 10 days. The tumor volume was measured 2-3 times each week and the weights of mice were recorded. The tumor volume (V) was calculated according to the following equation: V=½×a×b^2, wherein, a and b are length and width, respectively.

[21] = test system: SK-HEP-1 liver cancer cells; experiment: SRB assay Example 17, SK-HEP-1; format: cell-based; conditions: Homo sapiens, SK-HEP1, 72 h
Experimental: as §1, with “diluted 3” for “diluted 10”, “least 9” for “least 5”
as §2, §3

[22] = test system: Hep3B liver cancer cells; experiment: SRB assay Example 17, Hep3B; format: cell-based; conditions: Homo sapiens, 72 h
Experimental: as §1, with “diluted 3” for “diluted 10”, “least 9” for “least 5”
as §2, §3

[23] = test system: 3AO ovarian cancer cells; experiment: SRB assay Example 17, 3AO; format: cell-based; conditions: Homo sapiens, 72 h
Experimental: as §1, with “diluted 3” for “diluted 10”, “least 9” for “least 5”
as §2, §3

[24] = test system: HUVEC normal human umbilical vein endothelial cells; experiment: SRB assay Example 17, HUVEC (20% FBS); format: cell-based; conditions: 72 h
Experimental: as §1, with “diluted 3” for “diluted 10”, “least 9” for “least 5”
as §2, §3

[25] = test system: SK-BR-3 breast carcinoma cells; experiment: SRB assay Example 17, SK-BR-3; format: cell-based; conditions: Homo sapiens, 72 h
Experimental: as §1, with “diluted 3” for “diluted 10”, “least 9” for “least 5”
as §2, §3

SMILES: CCNc1ccc(-c2ccc(=O)[nH]n2)cc1C(F)(F)F [YHHU-744]
- IC50 [1]: < 10 nM
- Quantity of Animals Whose Tumors Vanished [2]: 4
- Inhibition Rate (%) [2]: 98%
- Tumor Volume (mm^3) [2]: 343.7 mm^3
- tumors vanished (animals/group) [2]: 4/5
- toxicity / survivability of mice [2]: no significant toxicity was observed

SMILES: O=c1ccc(-c2ccc(N3CCCCC3)c(C(F)(F)F)c2)n[nH]1 [YHHU-755]
- IC50 [1]: < 10 nM
- Quantity of Animals Whose Tumors Vanished [2]: 5
- Inhibition Rate (%) [2]: 100%
- Tumor Volume (mm^3) [2]: 350.4 mm^3
- tumors vanished (animals/group) [2]: 5/5
- recrudescence of tumors [2]: no recrudescence was observed
- toxicity / survivability of mice [2]: no significant toxicity was observed

SMILES: CN1CCN(c2ccc(-c3ccc(=O)[nH]n3)cc2C(F)(F)F)CC1 [YHHU-756]
- IC50 [3]: 20 nM
- IC50 [1]: < 10 nM
- IC50 [4]: 12900 nM
- IC50 [5]: 20 nM
- IC50 [6]: 12100 nM
- IC50 [7]: > 10000 nM
- IC50 [8]: 10 nM
- IC50 [9]: 30 nM
- IC50 [10]: 20 nM
- IC50 [11]: 20 nM
- IC50 [12]: > 10000 nM
- IC50 [13]: 20 nM
- Quantity of Animals Whose Tumors Vanished [2]: 5
- Inhibition Rate (%) [2]: 100%
- Tumor Volume (mm^3) [2]: 294.6 mm^3
- tumors vanished (animals/group) [2]: 5/5
- recrudescence of tumors [2]: no recrudescence was observed
- toxicity / survivability of mice [2]: no significant toxicity was observed
- IC50 [14]: 20 nM
- IC50 [15]: 30 nM
- IC50 [16]: 410 nM
- IC50 [17]: 10 nM
- IC50 [18]: 13200 nM
- IC50 [19]: > 10000 nM
- survivability / weight loss of mice bearing cancer [20]: no symptoms such as weight loss was observed
- growth of SMMC-7721 transplanted tumor ([20]; subcutaneous tumor on nude mice): caused part of the tumors vanished
- IC50 [21]: > 10000 nM
- IC50 [22]: > 10000 nM
- IC50 [23]: 20 nM
- IC50 [24]: 50 nM
- IC50 [25]: 7100 nM
